Experimental data from US5917053A, “Indole-2,3-dione-3-oxime derivatives, their preparation and use” (Neurosearch A/S, priority 1994, dated 1999).

Tests used:
[1] = target: AMPA receptor; assay: AMPA receptor affinity (receptor binding, as described by T. Honore et al.); details: Neuroscience Letters 54, 27-32 (1985)
Text: In Vitro activity (receptor affinity):
The compounds of the present invention has been tested for their affinity for the AMPA receptor as described by T. Honore et al., Neuroscience Letters 54, 27-32 (1985). IC50 values appear from the following Table 1.

[2] = system: cultured mouse cerebral cortex neurons; assay: Inhibition of stimulated 3H-GABA release from cultured cerebral cortex neurons; format: cell-based; details: Cerebral cortex neuron, 37° C., pH 7.4, stimulated 30 sec every 4 min
Text: The compounds of the invention have also been tested for their ability to inhibit GABA release from cultured mouse cerebral cortex neurons using the following test:
Background: Neurons which express receptors for excitatory amino acids can be depolarized by such compounds and this depolarization will ultimately lead to a release of transmitter substance from the neurons. Cultured neurons obtained from 15-day-old mouse embryo cortex are mainly GABAergic and express all types of excitatory amino acid receptors. This means that they can be stimulated by high potassium or by the excitatory amino acids, NMDA, AMPA and kainate to release their neurotransmitter GABA.
^3 H-GABA may be used to label the GABA transmitter pool in the neurons and the release of ^3 H-GABA from the neurons may be used as a simple functional model for studies of the effects of excitatory amino acids and their antagonists.
Method: Cerebral cortices of 16-day-old mouse embryos are chopped in 0.4×0.4 mm cubes. The tissue is dissociated by mild trypsinization (0.1% (wt/vol) trypsin, 37° C., 15 min) and subsequently inoculated into poly-L-lysine-coated 3-cm Petri dishes containing a slightly modified DMEM (24.5 mM KCI, 30 mM glucose) supplemented with p-aminobenzoate (7 μM), insulin (100 mU/L) and 10% (vol/vol) horse serum. Cells are maintained in culture for 5-7 days with the addition of the antimitotic agent cytosine arbinoside (40 μM) from day 2 in vitro to prevent glial profileration. For further details and references, see Drejer et al. Exp. Brain Res. 47, 259 (1982).
Release experiments are performed using the model described by Drejer et al. Life Sci. 38, 2077 (1986). Cerebral cortex neurons cultured in Petri dishes (30 mm) are added 100 μM γ-vinyl-GABA one hour before the experiment in order to inhibit degradation of GABA in the neurons. 30 min before the experiment 5 μCi ^3 H-GABA is added to each culture and after this preloading period the cell monolayer at the bottom of the dish is covered with a piece of nylon mesh to protect the cells against mechanical damage and to facilitate dispersion of medium over the cell layer. The preloading medium is removed and the Petri dishes are placed in a superfusion system consisting of a peristaltic pump continously delivering thermostated 37° C. superfusion medium HEPES buffered saline (HBS): 10 mM HEPES, 135 mM NaCl, 5 mM KCl, 0.6 mM MgSO4, 1.0 mM CaCl2 and 6 mM D-glucose; pH 7.4) from a reservoir to the top of the slightly tilted Petri dish. The medium is continously collected from the lower part of the dish and delivered to a fraction collector. Initially, the cells are superfused with HBS for 15 min (flow rate 2 ml/min). Then the cells are stimulated for 30 sec every 4 min by changing the superfusion medium from HBS to a corresponding medium containing […].
Test subtances are dissolved in 50% DMSO, 48% ethanol. The final DMSO and ethanol concentration in the assay must not exceed 0.1%.
The stimulated release of ^3 H-GABA (cpm) are corrected for the mean basal release(cpm) before and after stimulation.
The stimulated release in the presence of antagonists are expressed relative to the stimulated release and the IC50 value for the antagonist is calculated (the concentration (μM) of the test substance which inhibit 50% of the stimulated ^3 H-GABA release).

[3] = system: Gerbils; assay: Transient Forebrain Ischemia Model (2-VO Gerbils), global ischaemia, hippocampal damage; format: in vivo, gerbil; details: 30 mg/kg bolus i.v. followed by one hour infusion of 30 mg/kg (total 60 mg/kg) after 4 min occlusion; read four days later; Mann-Whitney Rank Sum Test
Procedure: The compound, 8-methyl-5-(4-(N,N-dimethylsulphamoyl)phenyl)-6,7,8,9-tetrahydro-1H-pyrrolo[3,2-h]isoquinoline-2,3-dione-3-O-(N-ethylcarbamoyl)oxime has also been tested in the following animal moder of global ischaemia:
Transient Forebrain Ischemia Model (2-VO Gerbils)
Gerbils were anaesthetized with halothane, right and left carotid arteries located and occluded for 4 minutes. Animals were kept warm before and after the operation using heating lamps. During the operation the gerbils were placed on heating plates, body temperature controlled and maintained at 37±0.5° C. Postocclusion, the gerbils were divided in two groups. One group received 30 mg/kg test compound as a bolus injection i.v. followed by a one hour infusion of 30 mg/kg test compound (total dose was 60 mg/kg). The control group received 0.9% NaCl in the same infusion volume as the treated group. Four days later, the animals were sacrificed, brains removed and cooled to -70° C. Thereafter, the brains were sectioned in […] thick sections of which 5-7 with hippocampal tissue were selected and stained with hematoxylin eosine (HE).
Based upon the degree of hippocampal damage, each hippocampus was categorised into one of four groups (Group 1: no damage in the CA1-layer; Group 2: the CA1-layer partly damaged; Group 3: the CA1-layer completely damaged; and Group 4: damage in more than just the CA1-layer). […]

Row | SMILES | IC50 [1] [µM] | IC50 [2] [µM] | neuroprotective effect in the gerbil 2-VO model (ischemic score, hippocampal damage) [3]
1 | CCN1Cc2c(-c3ccccc3)cc3c(c2C1)NC(=O)C3=NOC(C)=O [7-ethyl-5-phenyl-1,6,7,8-tetrahydrobenzo[2,1-b:3,4-c]dipyrrole-2,3-dione 3-O-acetyloxime] | 1.7 | 2.7 | 
2 | CN1CCc2c(-c3ccc(S(=O)(=O)N(C)C)cc3)cc3c(c2C1)NC(=O)C3=NOC(=O)NC1CCCCC1 [8-methyl-5-(4-(N,N-dimethylsulphamoyl)phenyl)-6,7,8,9-tetrahydro-1H-pyrrolo[3,2-h]isoquinoline-2,3-dione-3-O-(N-cyclohexylcarbamoyl)oxime] | 0.014 |  | 
3 | CCNC(=O)ON=C1C(=O)Nc2c1cc(-c1ccc(S(=O)(=O)N(C)C)cc1)c1c2CN(C)CC1 [8-methyl-5-(4-(N,N-dimethylsulphamoyl)phenyl)-6,7,8,9-tetrahydro-1H-pyrrolo[3,2-h]isoquinoline-2,3-dione-3-O-(N-ethylcarbamoyl)oxime] | 0.038 | 0.19 | significant neuroprotective effect
4 | CCNC(=O)ON=C1C(=O)Nc2c1cc(-c1ccccc1)c1c2CN(C)CC1 [8-methyl-5-phenyl-6,7,8,9-tetrahydro-1H-pyrrolo[3,2-h]isoquinoline-2,3-dione-3-O-(N-ethylcarbamoyl)oxime] | 0.35 | 1.4 | 
5 | CC(=O)ON=C1C(=O)Nc2c1cc(-c1ccccc1)c1c2CN(C)CC1 [8-methyl-5-phenyl-6,7,8,9-tetrahydro-1H-pyrrolo[3,2-h]isoquinoline-2,3-dione-3-O-acetyloxime] | 0.15 | 2.9 | 
6 | CN1CCc2c(-c3ccccc3)cc3c(c2C1)NC(=O)C3=NOC(=O)C(C)(C)C [8-methyl-5-phenyl-6,7,8,9-tetrahydro-1H-pyrrolo[3,2-h]isoquinoline-2,3-dione-3-O-pivaloyloxime] | 0.19 | > 3 | 
